Measured values reported in ChEMBL document CHEMBL1909046, “DrugMatrix in vitro pharmacology data”.

What was measured:
[1] = DRUGMATRIX: ATPase, Na+/K+ enzyme inhibition (substrate: ATP); type: tissue-based, Sus scrofa, Heart; conditions: Not Active = under 50% inhibition at 10 µM
B2 bradykinin receptor = molecular target: T1, B2 bradykinin receptor (Homo sapiens, UniProt P30411); type: cell membranes, Membrane; conditions: chem-1; also: in other assays of this panel Not Active means under 50% inhibition at 10 µM
T1 sequence (P30411 whole entry): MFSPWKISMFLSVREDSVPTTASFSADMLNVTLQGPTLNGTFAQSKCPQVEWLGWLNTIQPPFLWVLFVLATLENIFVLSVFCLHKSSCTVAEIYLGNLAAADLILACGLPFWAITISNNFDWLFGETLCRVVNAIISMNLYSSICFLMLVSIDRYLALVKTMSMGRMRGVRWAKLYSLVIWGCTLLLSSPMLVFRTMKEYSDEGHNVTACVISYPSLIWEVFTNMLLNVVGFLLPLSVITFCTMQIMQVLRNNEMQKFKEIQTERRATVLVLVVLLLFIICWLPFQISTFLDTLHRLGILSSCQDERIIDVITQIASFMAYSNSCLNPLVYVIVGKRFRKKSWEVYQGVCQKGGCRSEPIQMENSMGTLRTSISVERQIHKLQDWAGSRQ

Thromboxane-A synthase = molecular target: T2, Thromboxane-A synthase (Homo sapiens, UniProt P24557); test: biochemical; type: tissue-based, Platelet; conditions: platelet;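 also: enzyme inhibition assay with PGH2 supplied as substrate; in other assays of this panel Not Active means under 50% inhibition at 10 µM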
T2 sequence (P24557 whole entry): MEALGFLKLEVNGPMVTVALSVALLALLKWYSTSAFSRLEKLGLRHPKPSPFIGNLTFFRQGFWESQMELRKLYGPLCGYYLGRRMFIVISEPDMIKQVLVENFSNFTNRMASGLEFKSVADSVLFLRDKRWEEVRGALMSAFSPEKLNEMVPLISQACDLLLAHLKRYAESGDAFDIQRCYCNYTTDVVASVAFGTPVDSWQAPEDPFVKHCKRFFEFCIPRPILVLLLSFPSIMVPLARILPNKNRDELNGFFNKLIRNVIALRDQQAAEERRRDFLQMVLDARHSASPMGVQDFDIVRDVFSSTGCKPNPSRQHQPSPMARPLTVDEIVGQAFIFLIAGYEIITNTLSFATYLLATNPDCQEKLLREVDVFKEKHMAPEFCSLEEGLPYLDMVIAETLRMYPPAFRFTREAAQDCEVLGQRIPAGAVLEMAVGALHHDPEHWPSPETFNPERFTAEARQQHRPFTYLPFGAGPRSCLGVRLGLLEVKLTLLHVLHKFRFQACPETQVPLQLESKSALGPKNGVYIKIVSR

[2] = molecular target: Kappa-type opioid receptor (Homo sapiens, UniProt P41145); test: DRUGMATRIX: Opiate kappa (OP2, KOP) radioligand binding (ligand: [3H] Diprenorphine); type: cell membranes, HEK293, Membrane; conditions: hek293; Not Active = under 50% inhibition at 10 µM
Cathepsin G = molecular target: T3, Cathepsin G (Homo sapiens, UniProt P08311); type: tissue-based; conditions: neutrophil;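 also: inhibition of Cathepsin G enzyme activity, tested on an AMC-conjugated peptide substrate; in other assays of this panel Not Active means under 50% inhibition at 10 µM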
T3 sequence (P08311 whole entry): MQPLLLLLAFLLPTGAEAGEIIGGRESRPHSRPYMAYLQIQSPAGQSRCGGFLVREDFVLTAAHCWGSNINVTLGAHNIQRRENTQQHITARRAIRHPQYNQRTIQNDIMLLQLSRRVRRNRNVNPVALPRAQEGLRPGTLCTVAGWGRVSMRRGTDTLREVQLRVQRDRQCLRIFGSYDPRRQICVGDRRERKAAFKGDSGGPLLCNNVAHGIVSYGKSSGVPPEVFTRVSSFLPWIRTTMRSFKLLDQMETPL

[3] = molecular target: T4, Receptor-type tyrosine-protein phosphatase C (Homo sapiens, UniProt P08575); set-up: species or system Escherichia coli;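 also: inhibition of CD45 enzyme activity measured using DiFMUP as substrate; in other assays of this panel Not Active means under 50% inhibition at 10 µM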
T4 sequence (P08575 whole entry): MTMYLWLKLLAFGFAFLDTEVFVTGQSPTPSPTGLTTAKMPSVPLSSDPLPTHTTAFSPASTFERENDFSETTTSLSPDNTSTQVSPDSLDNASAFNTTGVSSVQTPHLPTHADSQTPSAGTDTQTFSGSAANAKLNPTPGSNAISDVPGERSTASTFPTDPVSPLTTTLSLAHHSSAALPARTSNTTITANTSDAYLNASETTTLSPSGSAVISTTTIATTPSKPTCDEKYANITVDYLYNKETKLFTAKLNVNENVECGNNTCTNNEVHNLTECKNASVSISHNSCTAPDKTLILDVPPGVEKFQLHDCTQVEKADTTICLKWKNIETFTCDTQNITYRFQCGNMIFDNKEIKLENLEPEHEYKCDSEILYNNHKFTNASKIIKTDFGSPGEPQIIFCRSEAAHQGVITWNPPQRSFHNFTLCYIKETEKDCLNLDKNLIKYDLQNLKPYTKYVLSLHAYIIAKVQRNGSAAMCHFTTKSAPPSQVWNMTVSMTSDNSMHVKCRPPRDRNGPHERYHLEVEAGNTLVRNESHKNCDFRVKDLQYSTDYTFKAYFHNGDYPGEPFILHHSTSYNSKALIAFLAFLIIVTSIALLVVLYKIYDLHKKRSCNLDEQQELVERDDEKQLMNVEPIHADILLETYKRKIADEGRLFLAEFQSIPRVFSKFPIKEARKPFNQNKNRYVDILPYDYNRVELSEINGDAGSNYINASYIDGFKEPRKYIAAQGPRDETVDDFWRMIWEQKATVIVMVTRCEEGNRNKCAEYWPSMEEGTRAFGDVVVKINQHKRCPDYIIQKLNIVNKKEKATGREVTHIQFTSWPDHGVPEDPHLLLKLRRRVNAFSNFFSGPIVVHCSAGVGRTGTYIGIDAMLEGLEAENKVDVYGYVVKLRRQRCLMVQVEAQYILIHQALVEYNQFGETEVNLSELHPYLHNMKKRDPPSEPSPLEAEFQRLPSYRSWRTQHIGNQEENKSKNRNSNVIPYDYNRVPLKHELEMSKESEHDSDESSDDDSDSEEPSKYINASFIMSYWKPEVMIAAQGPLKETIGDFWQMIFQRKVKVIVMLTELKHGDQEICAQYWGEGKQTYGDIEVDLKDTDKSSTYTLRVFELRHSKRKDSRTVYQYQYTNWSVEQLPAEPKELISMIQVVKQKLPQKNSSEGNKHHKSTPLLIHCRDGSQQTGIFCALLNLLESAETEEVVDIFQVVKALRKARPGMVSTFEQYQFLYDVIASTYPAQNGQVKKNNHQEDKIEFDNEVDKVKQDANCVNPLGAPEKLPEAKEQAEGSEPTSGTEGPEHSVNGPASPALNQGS

Kappa-type opioid receptor, sequence (P41145 whole entry): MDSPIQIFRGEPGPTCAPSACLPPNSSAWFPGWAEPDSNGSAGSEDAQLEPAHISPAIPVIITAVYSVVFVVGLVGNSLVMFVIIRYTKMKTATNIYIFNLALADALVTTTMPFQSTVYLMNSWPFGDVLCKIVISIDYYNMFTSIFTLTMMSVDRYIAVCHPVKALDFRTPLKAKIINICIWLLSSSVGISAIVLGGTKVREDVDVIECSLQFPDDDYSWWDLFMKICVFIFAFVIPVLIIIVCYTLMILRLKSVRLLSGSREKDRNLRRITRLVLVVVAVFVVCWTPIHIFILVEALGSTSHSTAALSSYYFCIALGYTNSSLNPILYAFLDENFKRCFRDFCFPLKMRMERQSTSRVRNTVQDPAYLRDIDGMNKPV

COC(=O)C1=C(C)NC(C)=C(C(=O)OCC(C)C)C1c1ccccc1[N+](=O)[O-] (stereo not given) [NISOLDIPINE]
Not Active: IC50 [1] | Ki [1] | IC50 (B2 bradykinin receptor) | IC50 (Thromboxane-A synthase) | IC50 [2] | IC50 (Cathepsin G) | IC50 [3]

CCOC(=O)C1=C(C)NC(C)=C(C(=O)OC)C1c1cccc([N+](=O)[O-])c1 (stereo not given) [NITRENDIPINE]
Not Active: IC50 [1] | Ki [1] | IC50 (B2 bradykinin receptor) | IC50 (Thromboxane-A synthase) | IC50 [2] | IC50 (Cathepsin G) | IC50 [3]

C#C[C@]1(OC(C)=O)CC[C@H]2[C@@H]3CCC4=CC(=O)CC[C@@H]4[C@H]3CC[C@@]21C [NORETHINDRONE ACETATE]
Not Active: IC50 [1] | Ki [1] | IC50 (B2 bradykinin receptor) | IC50 (Thromboxane-A synthase) | IC50 [2] | IC50 (Cathepsin G) | IC50 [3]

COc1ccc2[nH]c([S+]([O-])Cc3ncc(C)c(OC)c3C)nc2c1 (stereo not given) [OMEPRAZOLE]
Not Active: IC50 [1] | Ki [1] | IC50 (B2 bradykinin receptor) | IC50 (Thromboxane-A synthase) | IC50 [2] | IC50 (Cathepsin G) | IC50 [3]

Cc1nccn1CC1CCc2c(c3ccccc3n2C)C1=O (stereo not given) [ONDANSETRON]
Not Active: IC50 [1] | Ki [1] | IC50 (B2 bradykinin receptor) | IC50 (Thromboxane-A synthase) | IC50 [2] | IC50 (Cathepsin G) | IC50 [3]

CCn1cc(C(=O)O)c(=O)c2cc(F)c(N3CCN(C)CC3)cc21 [PEFLOXACIN]
Not Active: IC50 [1] | Ki [1] | IC50 (B2 bradykinin receptor) | IC50 (Thromboxane-A synthase) | IC50 [2] | IC50 (Cathepsin G) | IC50 [3]

CCCCOc1ccc(OCCCN2CCOCC2)cc1 [PRAMOXINE]
Not Active: IC50 [1] | Ki [1] | IC50 (B2 bradykinin receptor) | IC50 (Thromboxane-A synthase) | IC50 [2] | IC50 (Cathepsin G) | IC50 [3]

O=C(C1CCCCC1)N1CC(=O)N2CCc3ccccc3C2C1 (stereo not given) [PRAZIQUANTEL]
Not Active: IC50 [1] | Ki [1] | IC50 (B2 bradykinin receptor) | IC50 (Thromboxane-A synthase) | IC50 [2] | IC50 (Cathepsin G) | IC50 [3]

CCN(CC)CCOC(=O)c1ccc(N)cc1 [PROCAINE]
Not Active: IC50 [1] | Ki [1] | IC50 (B2 bradykinin receptor) | IC50 (Thromboxane-A synthase) | IC50 [2] | IC50 (Cathepsin G) | IC50 [3]

CCCN(CCC)C(=O)C(CCC(=O)O)NC(=O)c1ccccc1 (stereo not given) [PROGLUMIDE]
Not Active: IC50 [1] | Ki [1] | IC50 (B2 bradykinin receptor) | IC50 (Thromboxane-A synthase) | IC50 [2] | IC50 (Cathepsin G) | IC50 [3]

NC(=O)c1cnccn1 [PYRAZINAMIDE]
Not Active: IC50 [1] | Ki [1] | IC50 (B2 bradykinin receptor) | IC50 (Thromboxane-A synthase) | IC50 [2] | IC50 (Cathepsin G) | IC50 [3]

OC(CCN1CCCCC1)(c1ccccc1)C1CCCCC1 (stereo not given) [TRIHEXYPHENIDYL]
Not Active: IC50 [1] | Ki [1] | IC50 (B2 bradykinin receptor) | IC50 (Thromboxane-A synthase) | IC50 [2] | IC50 (Cathepsin G) | IC50 [3]

Cc1cc2cc3c(C)cc(=O)oc3c(C)c2o1 [TRIOXSALEN]
Not Active: IC50 [1] | Ki [1] | IC50 (B2 bradykinin receptor) | IC50 (Thromboxane-A synthase) | IC50 [2] | IC50 (Cathepsin G) | IC50 [3]

CCCC(CCC)C(=O)O [VALPROIC ACID]
Not Active: IC50 [1] | Ki [1] | IC50 (B2 bradykinin receptor) | IC50 (Thromboxane-A synthase) | IC50 [2] | IC50 (Cathepsin G) | IC50 [3]

CCC1=C[C@@H]2CN(C1)Cc1c([nH]c3ccccc13)[C@@](C(=O)OC)(c1cc3c(cc1OC)N(C)[C@H]1[C@@](O)(C(=O)OC)[C@H](OC(C)=O)[C@]4(CC)C=CCN5CC[C@]31[C@@H]54)C2 [VINORELBINE]
Not Active: IC50 [1] | Ki [1] | IC50 (B2 bradykinin receptor) | IC50 (Thromboxane-A synthase) | IC50 [2] | IC50 (Cathepsin G) | IC50 [3]
